From ChEMBL document CHEMBL1149079, “A novel sesquiterpene quinone from Hainan sponge Dysidea villosa” (Bioorg Med Chem Lett, 2009)
Activity calls are given as the source filed them. The calls are words filed in the database; no cut-off is given here.

Assays:
[1] = target: T1, Tyrosine-protein phosphatase non-receptor type 1 (Homo sapiens, UniProt P18031); test: Inhibition of human PTP1B
T1 sequence (P18031 whole entry): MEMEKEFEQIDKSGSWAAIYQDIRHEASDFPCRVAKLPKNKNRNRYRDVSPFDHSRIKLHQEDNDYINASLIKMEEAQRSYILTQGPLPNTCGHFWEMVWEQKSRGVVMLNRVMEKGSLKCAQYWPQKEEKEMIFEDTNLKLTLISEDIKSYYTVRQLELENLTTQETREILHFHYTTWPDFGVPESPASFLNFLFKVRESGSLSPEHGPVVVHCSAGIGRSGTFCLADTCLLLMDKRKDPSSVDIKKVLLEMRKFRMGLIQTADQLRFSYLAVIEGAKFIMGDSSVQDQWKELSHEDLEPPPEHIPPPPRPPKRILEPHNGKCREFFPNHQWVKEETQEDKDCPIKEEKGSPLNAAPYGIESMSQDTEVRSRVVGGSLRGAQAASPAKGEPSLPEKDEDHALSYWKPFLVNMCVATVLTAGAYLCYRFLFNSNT

[2] = tested on: HeLa; test: Cytotoxicity against human HeLa cells; assay type: functional, cell-based
[3] = tested on: Human immunodeficiency virus 1; test: Antiviral activity against HIV1; assay type: functional, organism-based
[4] = tested on: CHO-K1; test: Activation of insulin signaling pathway in CHOK1 cells; assay type: functional, cell-based; settings: Cricetulus griseus
[5] = tested on: 3T3-L1; test: Activation of insulin signaling pathway in mouse 3T3L1 cells; assay type: functional, cell-based
[6] = tested on: 3T3-L1; test: Increase in glucose uptake in mouse 3T3L1 cells relative to control; assay type: functional
[7] = tested on: CHO-K1; test: Induction of membrane translocation of GLUT4 transporter in CHOK1 cells; assay type: functional, cell-based; settings: Cricetulus griseus
[8] = tested on: 3T3-L1; test: Induction of membrane translocation of GLUT4 transporter in mouse 3T3L1 cells; assay type: functional, cell-based

IC50 [1] [µM] | Structure (SMILES) | IC50 [2] [µM] | Activity [3] | Activity [4] | Activity [5] | Activity [6] | Activity [7] | Activity [8]
39.5 | COC1=CC(=O)C=C(C[C@@]2(C)CC[C@]3(C)C(C)=CCC[C@H]3[C@H]2C)C1=O | 19.4 | inactive |  |  |  |  | 
 | CC1=CCC[C@H]2[C@](C)(CC3=CC(=O)C=CC3=O)[C@@H](C)CC[C@]12C |  | inactive |  |  |  |  | 
 | CC1=CCC[C@H]2[C@](C)(Cc3cc(O)ccc3O)[C@@H](C)CC[C@]12C |  | inactive |  |  |  |  | 
 | COC1=CC(=O)C(O)=C(C[C@@]2(C)CC[C@]3(C)C(C)=CCC[C@H]3[C@H]2C)C1=O [BOLINAQUINONE] | 5.45 | inactive |  |  |  |  | 
6.7 | CC1=CCC[C@H]2[C@@H](C)[C@@](C)(CC3=C(O)C(=O)C=C(NCCS(=O)(=O)O)C3=O)CC[C@]12C [DYSIDINE] |  | inactive | Active | Active | 2.3 | Active | Active
